Source: patent US20160002273A1, “THIENO[3,2-D]PYRIMIDINE-6-CARBOXAMIDES AND ANALOGUES AS SIRTUIN MODULATORS” (GLAXOSMITHKLINE LLC, priority 2013, published 2016)
Values after ≈ are worked out from the molar mass of the structure shown. Read-outs that look alike come from different tables or passages of the source.

What was measured:
[1] = HPLC based lipophilicity assay (CHI LogD); format: physicochemical; settings: CHI values by reverse phase HPLC transformed to a LogD scale
[2] = Kinetic solubility by chemi-luminescent nitrogen detection (CLND); format: physicochemical; settings: aqueous buffer, kinetic from dmso stock, DMSO stock incubated 1 hr in phosphate buffered saline pH 7.4, filtered
CYP 1A2 = molecular target: T1, CYP 1A2 (Homo sapiens, UniProt P05177); assay: CYP inhibition 1A2; format: in vitro ADME
T1 sequence (P05177 1-516): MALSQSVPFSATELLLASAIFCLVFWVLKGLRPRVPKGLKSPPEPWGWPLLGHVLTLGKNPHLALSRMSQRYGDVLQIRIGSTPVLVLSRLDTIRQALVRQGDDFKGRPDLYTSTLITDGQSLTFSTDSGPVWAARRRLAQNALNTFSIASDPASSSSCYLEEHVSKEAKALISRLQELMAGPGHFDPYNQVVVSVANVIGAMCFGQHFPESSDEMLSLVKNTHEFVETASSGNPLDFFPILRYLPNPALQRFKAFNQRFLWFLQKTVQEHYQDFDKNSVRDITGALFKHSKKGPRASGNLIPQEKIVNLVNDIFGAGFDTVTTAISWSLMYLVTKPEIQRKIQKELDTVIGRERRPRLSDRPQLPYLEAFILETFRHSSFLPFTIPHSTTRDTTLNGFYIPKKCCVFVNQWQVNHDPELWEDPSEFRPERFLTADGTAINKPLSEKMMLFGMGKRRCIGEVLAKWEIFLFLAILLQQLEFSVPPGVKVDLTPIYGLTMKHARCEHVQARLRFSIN

CYP 2C19 = CYP 2C19 (Homo sapiens, UniProt P33261); assay: CYP inhibition 2C19; format: in vitro ADME
Chain of CYP 2C19 (P33261 whole entry): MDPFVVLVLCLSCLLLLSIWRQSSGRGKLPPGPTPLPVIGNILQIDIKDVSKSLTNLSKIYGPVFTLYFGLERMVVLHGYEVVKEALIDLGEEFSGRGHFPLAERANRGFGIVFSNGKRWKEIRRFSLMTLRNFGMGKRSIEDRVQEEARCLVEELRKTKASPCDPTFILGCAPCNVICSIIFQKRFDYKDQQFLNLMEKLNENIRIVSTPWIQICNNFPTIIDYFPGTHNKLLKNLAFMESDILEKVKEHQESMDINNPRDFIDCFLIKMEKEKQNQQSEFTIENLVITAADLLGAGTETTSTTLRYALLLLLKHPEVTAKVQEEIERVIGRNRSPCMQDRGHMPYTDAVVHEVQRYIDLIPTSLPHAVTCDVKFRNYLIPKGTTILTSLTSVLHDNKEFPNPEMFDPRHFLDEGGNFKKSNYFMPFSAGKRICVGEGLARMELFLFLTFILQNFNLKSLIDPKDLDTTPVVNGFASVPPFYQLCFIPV

CYP 2D6 = CYP 2D6 (Homo sapiens, UniProt P10635); assay: CYP inhibition 2D6; format: in vitro ADME
Chain of CYP 2D6 (P10635 whole entry): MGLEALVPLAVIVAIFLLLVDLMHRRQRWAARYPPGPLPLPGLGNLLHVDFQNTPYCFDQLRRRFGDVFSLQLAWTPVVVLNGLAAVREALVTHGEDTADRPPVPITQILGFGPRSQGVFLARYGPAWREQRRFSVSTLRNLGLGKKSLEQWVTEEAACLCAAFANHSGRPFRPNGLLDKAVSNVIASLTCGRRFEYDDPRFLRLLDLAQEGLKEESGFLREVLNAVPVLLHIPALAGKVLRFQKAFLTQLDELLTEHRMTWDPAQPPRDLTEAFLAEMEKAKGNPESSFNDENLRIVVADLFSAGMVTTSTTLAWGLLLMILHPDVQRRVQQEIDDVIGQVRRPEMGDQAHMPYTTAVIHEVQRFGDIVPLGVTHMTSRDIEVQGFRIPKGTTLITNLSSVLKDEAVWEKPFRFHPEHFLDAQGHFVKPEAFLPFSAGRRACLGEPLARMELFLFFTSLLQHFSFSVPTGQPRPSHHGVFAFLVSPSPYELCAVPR

CYP 3A4 = CYP 3A4 (Homo sapiens, UniProt P08684); assay: CYP inhibition 3A4; format: in vitro ADME
Chain of CYP 3A4 (P08684 whole entry): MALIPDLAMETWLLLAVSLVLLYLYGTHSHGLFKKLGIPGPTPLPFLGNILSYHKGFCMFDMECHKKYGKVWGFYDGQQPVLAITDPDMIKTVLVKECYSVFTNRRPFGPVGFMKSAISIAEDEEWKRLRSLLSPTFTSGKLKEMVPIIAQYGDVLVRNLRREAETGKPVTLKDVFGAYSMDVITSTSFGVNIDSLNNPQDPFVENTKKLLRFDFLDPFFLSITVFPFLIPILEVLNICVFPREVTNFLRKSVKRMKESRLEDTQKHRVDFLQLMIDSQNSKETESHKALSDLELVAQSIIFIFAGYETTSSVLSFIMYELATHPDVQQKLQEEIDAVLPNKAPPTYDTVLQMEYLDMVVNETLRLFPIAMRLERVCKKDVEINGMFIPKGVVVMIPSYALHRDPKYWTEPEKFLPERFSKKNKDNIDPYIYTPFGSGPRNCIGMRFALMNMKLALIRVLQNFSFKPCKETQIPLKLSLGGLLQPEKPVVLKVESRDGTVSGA

[3] = Stability in human microsomes; format: in vitro ADME
[4] = Stability in mouse microsomes; format: in vitro ADME
[5] = test system: sirtuin mediated deacetylation of acetyl-p65; assay: Acetyl-p65 assay in U2OS cells (AlphaScreen); format: cell-based; settings: FIG. 6
Description: In certain embodiments, U2OS cells were counted by hemocytometer and diluted to a concentration of 1.5×10^5 cell/ml. BacMam p65 and BacMam p300-HAT viruses were added to the diluted cells at 1% and 1% (vol/vol). 40 μl aliquots of the cell suspensions containing the viruses were plated onto a 384 well plate with a multi-drop dispenser. After 7 hours, a 2-fold serial dilution of Compounds 25, 28 and Compound 4, hereafter referred to as the test compounds, was carried out in DMSO. The test compounds were subsequently diluted with medium (20-fold) in an intermediate compound plate, and 4 μL of each test compound was transferred by a liquid handler from the intermediate plate to a cell plate. 24 hours post viral transduction, the medium in the cell plate was removed by inverting and flicking the plate, and blotting the plate with paper towels. 30 μl of lysis buffer (25 mM HEPES pH 7.4, 0.5% Triton X-100, 1 mg/ml Dextran 500, 0.1% BSA, 300 mM NaCl, 2 mM MgCl2, 1×protease inhibitor cocktail) was added to each well to lyse the cells. After incubation of the cells with lysis buffer for 30 minutes at room temp, 10 μl and 3 μl aliquots of the cell lysates were transferred to assay plates, and the assay plate containing 3 μl aliquot of cell lysates was diluted with an additional 7 μl of lysis buffer to obtain a final volume of 10 μl. Acetyl-p65 and total p65 protein in cell lysates were measured using the AlphaScreen assay format (PerkinElmer). The antibodies used to detect acetyl-p65 protein were biotinylated anti-HA antibody (Roche, 12158167001) and anti-acetylated K310-p65 antibody (Abcam, ab19870). The antibodies used to detect total p65 protein were biotinylated anti-HA antibody (Roche, 12158167001) and anti-p65 antibody (Santa Cruz, sc109). […] After incubating the plates for another 2 hrs in the dark, the plates were read by a PHERAstar microplate reader. […]

SIRT2 = molecular target: T2, SIRT2 (Homo sapiens, UniProt Q8IXJ6); assay: SIRT2 deacetylation of Trp 5-mer peptide, OAADPr mass spec assay; format: biochemical; design: His-SIRT2(1-389)
T2 sequence (Q8IXJ6 1-389): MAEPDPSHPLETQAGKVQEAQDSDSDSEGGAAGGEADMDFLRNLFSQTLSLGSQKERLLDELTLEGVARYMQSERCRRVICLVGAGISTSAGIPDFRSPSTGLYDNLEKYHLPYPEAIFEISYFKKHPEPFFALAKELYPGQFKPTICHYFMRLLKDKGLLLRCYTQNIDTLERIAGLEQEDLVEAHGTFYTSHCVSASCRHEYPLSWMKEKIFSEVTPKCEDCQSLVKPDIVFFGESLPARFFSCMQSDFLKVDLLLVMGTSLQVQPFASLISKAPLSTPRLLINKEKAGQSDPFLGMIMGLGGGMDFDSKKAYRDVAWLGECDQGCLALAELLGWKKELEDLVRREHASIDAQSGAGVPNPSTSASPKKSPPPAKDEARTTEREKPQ

SIRT1 = molecular target: T3, SIRT1 (Homo sapiens, UniProt Q96EB6); assay: SIRT1 deacetylation of Trp 5-mer peptide, OAADPr mass spec assay
T3 sequence (Q96EB6 1-747): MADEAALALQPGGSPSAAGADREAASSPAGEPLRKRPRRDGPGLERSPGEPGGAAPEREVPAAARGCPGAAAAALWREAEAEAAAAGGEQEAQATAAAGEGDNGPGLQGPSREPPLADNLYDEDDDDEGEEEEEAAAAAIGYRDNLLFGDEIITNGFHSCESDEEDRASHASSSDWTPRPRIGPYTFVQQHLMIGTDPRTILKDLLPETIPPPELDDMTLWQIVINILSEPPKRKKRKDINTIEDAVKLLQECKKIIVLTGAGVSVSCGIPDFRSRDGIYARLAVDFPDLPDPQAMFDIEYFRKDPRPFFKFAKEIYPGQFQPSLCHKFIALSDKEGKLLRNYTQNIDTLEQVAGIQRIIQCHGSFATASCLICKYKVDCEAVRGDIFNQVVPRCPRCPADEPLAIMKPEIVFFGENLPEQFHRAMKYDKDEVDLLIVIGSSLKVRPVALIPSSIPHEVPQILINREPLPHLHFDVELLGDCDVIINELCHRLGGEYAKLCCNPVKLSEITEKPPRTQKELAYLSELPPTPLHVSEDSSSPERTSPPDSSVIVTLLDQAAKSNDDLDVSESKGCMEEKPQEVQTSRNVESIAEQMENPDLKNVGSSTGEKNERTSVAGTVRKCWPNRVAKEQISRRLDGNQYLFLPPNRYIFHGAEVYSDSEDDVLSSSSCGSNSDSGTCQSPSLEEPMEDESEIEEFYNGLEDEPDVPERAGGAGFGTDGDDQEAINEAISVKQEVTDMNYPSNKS
Description: All assays were performed at room temperature in reaction buffer (50 mM HEPES, pH 7.5, 150 mM NaCl, 1 mM DTT, 0.05% BSA). […] To prepare the assays for analysis, 20 μL of reaction volume was mixed in 80 μL of 50:50 acetonitrile:methanol mixture. […] Peak data was integrated using RapidFire Integrator software (Agilent, Santa Clara, Calif.).

CC(C)(C)C(=O)NCCC1CCN(c2ncnc3cc(C(N)=O)sc23)CC1 [Compound 28, 4-(4-(2-pivalamidoethyl)piperidin-1-yl)thieno[3,2-d]pyrimidine-6-carboxamide]
LogD [1]: 2.73
solubility at 1 hr [2]: 297 µM (≈ 116 µg/mL)
CYP 1A2 (CYP 1A2): > 50 µM
CYP 2C19 (CYP 2C19): > 50 µM
CYP 2D6 (CYP 2D6): > 50 µM
CYP 3A4 (CYP 3A4): > 50 µM
Human CLint [3]: 15.8 µL/min/mg
Mouse CLint [4]: 12.7 µL/min/mg
inhibition of sirtuin mediated deacetylation of acetyl-p65 [5]: inhibit
IC50 (SIRT2; Trp 5-mer peptide and NAD at KM, mean of at least three determinations, read-out: IC50 (μM) SIRT2): 0.01 µM
IC50 (SIRT2; Trp 5-mer peptide, class symbols, read-out: Trp SIRT2_IC50): < 1 µM
IC50 (SIRT1; Trp SIRT1_IC50, Trp 5-mer peptide, class symbols): < 1 µM
IC50 (SIRT1; read-out: IC50 (μM) SIRT1, Trp 5-mer peptide and NAD at KM, mean of at least three determinations): 0.015 µM
